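Five compound concentrations were applied to cells in 96-well plates for 48 hours; endpoints were derived by simple linear interpolation of the resulting dose-response curve. GI50: concentration for 50% inhibition of growth.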 Activity calls are given as the source filed them. Cut-off read from the data, not from the text of the source: active = GI50 up to about 1.1 µM and inactive = higher.
How the values were obtained:
Assay in all cases: NCI tumour cell line growth inhibition, 48 h
[1] = tested on: M19-MEL
[2] = tested on: DLD-1
[3] = tested on: DMS-114
[4] = tested on: SNB-78
[5] = tested on: DMS-273
[6] = tested on: HOP-18
[7] = tested on: LXFL 529
[8] = tested on: XF498
[9] = tested on: RXF 631

SMILES | GI50 [1] | GI50 [2] | GI50 [3] | GI50 [4] | GI50 [5] | GI50 [6] | GI50 [7] | GI50 [8] | GI50 [9]
CCOc1cccc2sc(N)nc12 | > 100 µM (inactive) | > 100 µM (inactive) | > 100 µM (inactive) | > 100 µM (inactive) | > 100 µM (inactive) | > 100 µM (inactive) | > 100 µM (inactive) |  | 
O=C1c2ccccc2C(=O)N1Cc1ccccc1-c1c2nc(c(-c3ccccc3CN3C(=O)c4ccccc4C3=O)c3ccc([nH]3)c(-c3ccccc3CN3C(=O)c4ccccc4C3=O)c3nc(c(-c4ccccc4CN4C(=O)c5ccccc5C4=O)c4ccc1[nH]4)C=C3)C=C2 | > 100 µM (inactive) | > 100 µM (inactive) | > 100 µM (inactive) | > 100 µM (inactive) | > 100 µM (inactive) | > 100 µM (inactive) | > 100 µM (inactive) |  | 
CCOc1ccc(NCC(=O)N2CC(=O)Nc3ccccc32)cc1 | > 100 µM (inactive) | > 100 µM (inactive) |  | > 100 µM (inactive) | > 100 µM (inactive) | > 100 µM (inactive) | > 100 µM (inactive) | > 100 µM (inactive) | 
Cc1ccc(Sc2ccccc2[N+](=O)[O-])cc1 | 32.1 µM (inactive) | 32.4 µM (inactive) |  | 36.6 µM (inactive) | 28.6 µM (inactive) | > 100 µM (inactive) | 29.6 µM (inactive) |  | 
COc1cc(C(=O)C/C(CCC(=O)Nc2ccc(Cl)cc2Cl)=N/NC(=O)C(N)=O)ccc1O | > 100 µM (inactive) | > 100 µM (inactive) | > 100 µM (inactive) | > 100 µM (inactive) | > 100 µM (inactive) | > 100 µM (inactive) | > 100 µM (inactive) | > 100 µM (inactive) | > 100 µM (inactive)
COc1cc(OC)c(C(=O)c2cccs2)cc1N | > 100 µM (inactive) | > 100 µM (inactive) | > 100 µM (inactive) | > 100 µM (inactive) | > 100 µM (inactive) | 23.7 µM (inactive) | > 100 µM (inactive) | > 100 µM (inactive) | > 100 µM (inactive)
Cc1c(C)c2cc3c(=O)c(CCl)coc3c(C)c2oc1=O | > 100 µM (inactive) |  | > 100 µM (inactive) | > 100 µM (inactive) |  | > 100 µM (inactive) | > 100 µM (inactive) |  | > 100 µM (inactive)
Cc1cc(NS(=O)(=O)c2ccc(NC(=O)COC(=O)c3cccc4c(=O)c5ccccc5[nH]c34)cc2)no1 | > 100 µM (inactive) | > 100 µM (inactive) | > 100 µM (inactive) | > 100 µM (inactive) | > 100 µM (inactive) |  | > 100 µM (inactive) | > 100 µM (inactive) | 
C/C(=C/C(=O)Nc1ccccc1)Nc1onc(C)c1C | > 100 µM (inactive) | > 100 µM (inactive) | > 100 µM (inactive) | > 100 µM (inactive) | > 100 µM (inactive) | > 100 µM (inactive) |  | > 100 µM (inactive) | 
CC(C)=CCc1c(O)cc(O)c2c1OC(c1ccc(O)cc1)C(O)C2=O (configuration not stated) | 35.7 µM (inactive) | 30.2 µM (inactive) | 39.4 µM (inactive) | 24.3 µM (inactive) |  | 17.8 µM (inactive) | 28.8 µM (inactive) | 30.2 µM (inactive) | 31.8 µM (inactive)
CCOC(=O)CC1=CSC2=NCCN12 | > 100 µM (inactive) | > 100 µM (inactive) | > 100 µM (inactive) | > 100 µM (inactive) | > 100 µM (inactive) | > 100 µM (inactive) | > 100 µM (inactive) | > 100 µM (inactive) | > 100 µM (inactive)
C/C(CC(=O)Nc1ccc(Cl)cc1)=N\NC(=O)C[n+]1ccccc1 |  | > 100 µM (inactive) | > 100 µM (inactive) | > 100 µM (inactive) | > 100 µM (inactive) |  | > 100 µM (inactive) | > 100 µM (inactive) | > 100 µM (inactive)
COc1cc(NC(C)=O)c2[nH]c3c(C)cc(NC(C)=O)c(C)c3c2c1 | > 100 µM (inactive) | > 100 µM (inactive) | > 100 µM (inactive) |  | > 100 µM (inactive) | > 100 µM (inactive) | > 100 µM (inactive) | > 100 µM (inactive) | 
COc1cc2c(c(OC)c1OC)-c1ccc(SC)c(=O)cc1[C@@H](NCc1ccc(C#N)cc1)CC2 | 0.00361 µM (active) | 0.00348 µM (active) | 0.00236 µM (active) | 0.00531 µM (active) | 0.0034 µM (active) |  | 0.0053 µM (active) | 0.00321 µM (active) | 
CC(C)c1cccc(C(C)C)c1NC(=S)Nc1ccccc1 | > 100 µM (inactive) | > 100 µM (inactive) | 43 µM (inactive) | > 100 µM (inactive) | > 100 µM (inactive) | > 100 µM (inactive) | > 100 µM (inactive) | 0.434 µM (active) | > 100 µM (inactive)
COC(=O)C(CC(C)C)NC(=O)NC12CC3CC(CC(F)(C3)C1)C2 (configuration not stated) | > 100 µM (inactive) | > 100 µM (inactive) | > 100 µM (inactive) | > 100 µM (inactive) |  |  | > 100 µM (inactive) |  | > 100 µM (inactive)
CCc1nnc(-c2nsc3ccccc23)s1 |  |  | > 100 µM (inactive) | > 100 µM (inactive) | > 100 µM (inactive) | > 100 µM (inactive) | > 100 µM (inactive) |  | 
COC(=O)C(Cc1nc2ccc(Cl)cc2nc1O)/C(=N/O)C(=O)Nc1cccc(Cl)c1C (configuration not stated) | > 100 µM (inactive) | > 100 µM (inactive) | > 100 µM (inactive) | > 100 µM (inactive) | > 100 µM (inactive) | > 100 µM (inactive) | > 100 µM (inactive) | > 100 µM (inactive) | 
CSc1nc2c(ncn2C2OC(CO)C(O)C(O)C2O)c(=O)[nH]1 (configuration not stated) | > 100 µM (inactive) | > 100 µM (inactive) | > 100 µM (inactive) | > 100 µM (inactive) | > 100 µM (inactive) | > 100 µM (inactive) |  | > 100 µM (inactive) | 
CCOC(=O)C1(C#N)C(c2ccccc2)CC(O)(c2ccc([N+](=O)[O-])cc2)C(C(=O)c2ccc([N+](=O)[O-])cc2)C1c1ccccc1 (configuration not stated) | > 100 µM (inactive) | > 100 µM (inactive) | > 100 µM (inactive) | > 100 µM (inactive) | > 100 µM (inactive) | 29.9 µM (inactive) | > 100 µM (inactive) | > 100 µM (inactive) | 
O=C1NC2OC(C(O)CO)C(O)C2O1 (configuration not stated) | > 100 µM (inactive) |  | > 100 µM (inactive) |  | > 100 µM (inactive) | > 100 µM (inactive) | > 100 µM (inactive) | > 100 µM (inactive) | 
O=C[C@@H](CO)O[C@H](C=O)n1cnc2c(=O)nc[nH]c21 | 346 µM (inactive) | 77.8 µM (inactive) | 39.2 µM (inactive) | 562 µM (inactive) | 101 µM (inactive) | 388 µM (inactive) |  | 459 µM (inactive) | 
CC(=O)OC1CC2OC(Cc3ccccc32)O1 (configuration not stated) | 60.4 µM (inactive) | 64.1 µM (inactive) | > 100 µM (inactive) | > 100 µM (inactive) | > 100 µM (inactive) | 32.8 µM (inactive) | > 100 µM (inactive) | > 100 µM (inactive) | 

Source: ChEMBL document CHEMBL1201862, “PubChem BioAssay data set” (2004)
